In paper PMC10623271 (Heliyon, 2023):

Molecular target: α-glucosidase from Bacillus stearothermophilus
Test: α-glucosidase assay
Format: biochemical
Details: positive control, pNPG, 20 min 60 °C, pH 6.8, ± SD

IC50: 2.9 ± 0.4 nM
SMILES: C[C@H]1O[C@H](O[C@H]2[C@H](O)[C@@H](O)[C@@H](O[C@H]3[C@H](O)[C@@H](O)C(O)O[C@@H]3CO)O[C@@H]2CO)[C@H](O)[C@@H](O)[C@@H]1N[C@H]1C=C(CO)[C@@H](O)[C@H](O)[C@H]1O (stereo partly shown) [Acarbose, acarbose]
